Where two headings read alike, the source gives them in different places.
Target: T1, human FXR (NR1H4) (Homo sapiens, UniProt Q96RI1)
T1 construct: host or cells: CHO (Chinese hamster ovary) reporter cells
T1 sequence (Q96RI1 1-486): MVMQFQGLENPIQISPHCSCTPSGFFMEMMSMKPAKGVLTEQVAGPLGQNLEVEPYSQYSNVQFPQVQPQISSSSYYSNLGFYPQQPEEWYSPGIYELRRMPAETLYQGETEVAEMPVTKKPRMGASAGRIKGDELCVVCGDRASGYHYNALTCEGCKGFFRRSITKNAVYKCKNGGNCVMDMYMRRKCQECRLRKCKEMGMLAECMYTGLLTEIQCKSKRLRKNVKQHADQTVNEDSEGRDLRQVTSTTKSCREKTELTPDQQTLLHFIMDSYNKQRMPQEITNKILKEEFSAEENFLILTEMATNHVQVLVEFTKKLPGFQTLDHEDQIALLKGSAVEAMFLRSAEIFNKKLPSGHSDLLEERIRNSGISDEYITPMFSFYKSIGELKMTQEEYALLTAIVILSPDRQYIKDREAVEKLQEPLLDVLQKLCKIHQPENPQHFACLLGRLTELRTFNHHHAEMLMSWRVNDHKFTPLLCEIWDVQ
Test: Human FXR (NR1H4) Assay (Gal4 promoter driven luciferase reporter, CHO cells)
Format: cell-based
From the text: Assays Human FXR (NR1H4) Assay
Determination of a ligand mediated Gal4 promoter driven transactivation to quantify ligand binding mediated activation of FXR. FXR Reporter Assay kit purchased from Indigo Bioscience (Catalogue number: IB00601) to determine the potency and efficacy of compound developed by Enanta that can induce FXR activation. The principle application of this reporter assay system is to quantify functional activity of human FXR. The assay utilizes non-human mammalian cells, CHO (Chinese hamster ovary) cells engineered to express human NR1H4 protein (referred to as FXR). Reporter cells also incorporate the cDNA encoding beetle luciferase which catalyzes the substrates and yields photon emission. Luminescence intensity of the reaction is quantified using a plate-reading luminometer, Envision. Reporter Cells include the luciferase reporter gene functionally linked to an FXR responsive promoter. Thus, quantifying changes in luciferase expression in the treated reporter cells provides a sensitive surrogate measure of the changes in FXR activity. […] The assay is according to the manufacturer's instructions. In brief, the assay was performed in white, 96 well plates using final volume of 100 ul containing cells with different doses of compounds. Retrieve Reporter Cells from −80° C. storage. Perform a rapid thaw of the frozen cells by transferring a 10 ml volume of 37° C. cell recovery medium into the tube of frozen cells. Recap the tube of Reporter Cells and immediately place it in a 37° C. water bath for 5-10 minutes. Retrieve the tube of Reporter Cell Suspension from the water bath. Sanitize the outside surface of the tube with a 70% alcohol swab, and then transfer it into the cell culture hood. Dispense 90 μl of cell suspension into each well of the 96-well Assay Plate. Transfer the plate into 37° C. incubator, allowing the cells adherent to the bottom of the well. Dilute compounds in Dilution Plate (DP), and administrate to cells at Assay Plate (AP). DMSO content of the samples was kept at 0.2%. Cells were incubated for additional 22 hours before luciferase activities were measured. Thirty minutes before intending to quantify FXR activity, remove Detection Substrate and Detection Buffer from the refrigerator and place them in a low-light area so that they may equilibrate to room temperature. Remove the plate's lid and discard all media contents by ejecting it into an appropriate waste container. Gently tap the inverted plate onto a clean absorbent paper towel to remove residual droplets. Cells will remain tightly adhered to well bottoms. Add 100 μl of luciferase detection reagent to each well of the assay plate. Allow the assay plate to rest at room temperature for at least 5 minutes following the addition of LDR. Set the instrument (Envision) to perform a single 5 second “plate shake” prior to reading the first assay well. Read time may be 0.5 second (500 mSec) per well.

[1] = efficacy normalized to CDCA set as 100%

SMILES	EC50	Efficacy (%) [1]	Efficacy (%)
CC[C@H]1[C@@H](O)[C@@H]2[C@H](CC[C@]3(C)[C@@H]([C@H](C)CCCS(=O)(=O)[O-])CC[C@@H]23)[C@@]2(C)CC[C@@H](O)C[C@@H]12.[Na+] [Example 10]	1 to 10 µM	4%	
CC[C@H]1[C@@H](O)[C@@H]2[C@H](CC[C@]3(C)[C@@H]([C@H](C)CC=CS(N)(=O)=O)CC[C@@H]23)[C@@]2(C)CC[C@@H](O)C[C@@H]12 [Example 17]	0.1 to 1 µM	147%	
CC[C@H]1[C@@H](O)[C@@H]2[C@H](CC[C@]3(C)[C@@H]([C@H](C)CC=CCS(N)(=O)=O)CC[C@@H]23)[C@@]2(C)CC[C@@H](O)C[C@@H]12 [Example 14]	0.1 to 1 µM	167%	
CC[C@H]1[C@@H](O)[C@@H]2[C@H](CC[C@]3(C)[C@@H]([C@H](C)CCCc4cc(F)c(O)c(F)c4)CC[C@@H]23)[C@@]2(C)CC[C@@H](O)C[C@@H]12 [Example 9]	1 to 10 µM	271%	
CC[C@H]1[C@@H](O)[C@@H]2[C@H](CC[C@]3(C)[C@@H]([C@H](C)CCCCS(=O)(=O)N(C)Cc4ccccc4)CC[C@@H]23)[C@@]2(C)CC[C@@H](O)C[C@@H]12 [Example 16]	1 to 10 µM	97%	
CC[C@H]1[C@@H](O)[C@@H]2[C@H](CC[C@]3(C)[C@@H]([C@H](C)CCOP(=O)(O)c4ccccc4)CC[C@@H]23)[C@@]2(C)CC[C@@H](O)C[C@@H]12 [Example 24]	1 to 10 µM	75%	
CC[C@H]1[C@@H](O)[C@@H]2[C@H](CC[C@]3(C)[C@@H]([C@H](C)CCS(=O)(=O)NC(C)=O)CC[C@@H]23)[C@@]2(C)CC[C@@H](O)C[C@@H]12 [Example 21]	1 to 10 µM	74%	
CCOP(=O)(CC[C@@H](C)[C@H]1CC[C@H]2[C@@H]3[C@H](O)[C@H](CC)[C@@H]4C[C@H](O)CC[C@]4(C)[C@H]3CC[C@]12C)c1ccccc1 (stereo partly drawn) [Example 29]	1 to 10 µM		49. %
CC[C@H]1[C@@H](O)[C@@H]2[C@H](CC[C@]3(C)[C@@H]([C@H](C)CCS(N)(=O)=O)CC[C@@H]23)[C@@]2(C)CC[C@@H](O)C[C@@H]12 [Example 13]	1 to 10 µM	118%	
CC[C@H]1[C@@H](O)[C@@H]2[C@H](CC[C@]3(C)[C@@H]([C@H](C)CCCOP(=O)(Oc4ccccc4)c4ccccc4)CC[C@@H]23)[C@@]2(C)CC[C@@H](O)C[C@@H]12 (stereo partly drawn) [Example 26]	1 to 10 µM		129%
CC(C)N(O)C(=O)CC[C@@H](C)[C@H]1CC[C@H]2[C@@H]3[C@H](O)C[C@@H]4C[C@H](O)CC[C@]4(C)[C@H]3CC[C@]12C [Example 2]	> 10 µM	13%	
CC[C@H]1[C@@H](O)[C@@H]2[C@H](CC[C@]3(C)[C@@H]([C@H](C)CCS(=O)(=O)NC(=O)c4ccccc4)CC[C@@H]23)[C@@]2(C)CC[C@@H](O)C[C@@H]12 [Example 22]	1 to 10 µM	249%	
CC[C@H]1[C@@H](O)[C@@H]2[C@H](CC[C@]3(C)[C@@H]([C@H](C)CCCCS(N)(=O)=O)CC[C@@H]23)[C@@]2(C)CC[C@@H](O)C[C@@H]12 [Example 15]	0.1 to 1 µM	195%	
CC[C@H]1[C@@H](O)[C@@H]2[C@H](CC[C@]3(C)[C@@H]([C@H](C)/C=C/S(=O)(=O)NCc4ccc(OC)cc4)CC[C@@H]23)[C@@]2(C)CC[C@@H](O)C[C@@H]12 [Example 18]	1 to 10 µM	16%	
CC[C@H]1[C@@H](O)[C@@H]2[C@H](CC[C@]3(C)[C@@H]([C@H](C)CCS(=O)(=O)N(Cc4ccc(OC)cc4)Cc4ccc(OC)cc4)CC[C@@H]23)[C@@]2(C)CC[C@@H](O)C[C@@H]12 [Example 12]	1 to 10 µM	1%	
CCOP(=O)(CCC[C@@H](C)[C@H]1CC[C@H]2[C@@H]3[C@H](O)[C@H](CC)[C@@H]4C[C@H](O)CC[C@]4(C)[C@H]3CC[C@]12C)OCC [Example 27]	1 to 10 µM		246%
CCOP(=O)(CCC[C@@H](C)[C@H]1CC[C@H]2[C@@H]3[C@H](O)[C@H](CC)[C@@H]4C[C@H](O)CC[C@]4(C)[C@H]3CC[C@]12C)c1ccccc1 (stereo partly drawn) [Example 28]	0.1 to 1 µM		265%
CC[C@H]1[C@@H](O)[C@@H]2[C@H](CC[C@]3(C)[C@@H]([C@H](C)/C=C/S(N)(=O)=O)CC[C@@H]23)[C@@]2(C)CC[C@@H](O)C[C@@H]12 [Example 19]	1 to 10 µM	3%	
C[C@H](CCC(=O)N(O)C1CCCCC1)[C@H]1CC[C@H]2[C@@H]3[C@H](O)C[C@@H]4C[C@H](O)CC[C@]4(C)[C@H]3CC[C@]12C [Example 3]	> 10 µM	2%	
CC[C@H]1[C@@H](O)[C@@H]2[C@H](CC[C@]3(C)[C@@H]([C@H](C)CCS(=O)(=O)NCc4ccc(OC)cc4)CC[C@@H]23)[C@@]2(C)CC[C@@H](O)C[C@@H]12 [Example 20]	> 10 µM	60%	
CC[C@H]1[C@@H](O)[C@@H]2[C@H](CC[C@]3(C)[C@@H]([C@H](C)CCC(=O)N(O)Cc4ccccc4)CC[C@@H]23)[C@@]2(C)CC[C@@H](O)C[C@@H]12 [Example 4]	1 to 10 µM	270%	
CC[C@H]1[C@@H](O)[C@@H]2[C@H](CC[C@]3(C)[C@@H]([C@H](C)CCCS(N)(=O)=O)CC[C@@H]23)[C@@]2(C)CC[C@@H](O)C[C@@H]12 [Example 23]	1 to 10 µM	202%	
CC[C@H]1[C@@H](O)[C@@H]2[C@H](CC[C@]3(C)[C@@H]([C@H](C)CCS(=O)(=O)[O-])CC[C@@H]23)[C@@]2(C)CC[C@@H](O)C[C@@H]12.[Na+] [Example 11]			1%
